Reference: paper PMC6321601 (Molecules, 2018)

Key:
[1] = system: L-O2 human normal liver cells; experiment: MTT assay, toxicity against L-O2 normal cells; format: cell-based; details: Homo sapiens, 72 h incubation, mean of three independent experiments
Method: (§1) HepG-2 human hepatocellular carcinoma cells and L-O2 human normal liver cells were maintained in DMEM culture medium supplemented with 10% FBS at 37 °C under a humidified atmosphere with 5% CO2.
(§2) HepG-2 and L-O2 cells in logarithmic growth phase were seeded into a 96-well plate at 5 × 10^3/well/200 µL. After 12 h, compounds at different concentrations were added and incubated for 72 h at 37 °C, 5% CO2. Then, 20 µL MTT (5 mg/mL) was added into each well and incubated for 4 h. The supernatant was discarded, and the precipitate was dissolved with DMSO. The absorbance of the optical density (OD) at 570 nm was detected using a microplate reader and the IC50 was calculated with GraphPad Prism 5.

[2] = system: HepG-2 human hepatocellular carcinoma cells; experiment: MTT assay, proliferation of HepG-2 cells; format: cell-based; details: Homo sapiens, HepG2, 72 h incubation, mean of three independent experiments
Method: as §1, §2

| SMILES | IC50 [1] [µM] | IC50 [2] [µM] |
| --- | --- | --- |
| CC(=O)OC(C)(C)/C=C/C(=O)[C@](C)(O)C1[C@H](OC(=O)/C=C/c2ccc(C#N)cc2)C[C@@]2(C)C3CC=C4C(C[C@H](O)C(=O)C4(C)C)[C@]3(C)C(=O)C[C@]12C (stereo partly drawn) [Compound 3p, (2S,9R,13R,14S,16R)-17-((R,E)-6-Acetoxy-2-hydroxy-6-methyl-3-oxohept-4-en-2-yl)-2-hydroxy-4,4,9,13,14-pentamethyl-3,11-dioxo-2,3,4,7,8,9,10,11,12,13,14,15,16,17-tetradecahydro-1H-cyclopenta[a]phenanthren-16-yl (E)-3-(4-cyanophenyl)acrylate] | 1.47 ± 0.36 | 2.34 ± 0.91 |
| COc1cc(/C=C/C(=O)O[C@@H]2C[C@@]3(C)C4CC=C5C(C[C@H](O)C(=O)C5(C)C)[C@]4(C)C(=O)C[C@]3(C)C2[C@@](C)(O)C(=O)/C=C/C(C)(C)OC(C)=O)cc(OC)c1 (stereo partly drawn) [Compound 3q, (2S,9R,13R,14S,16R)-17-((R,E)-6-Acetoxy-2-hydroxy-6-methyl-3-oxohept-4-en-2-yl)-2-hydroxy-4,4,9,13,14-pentamethyl-3,11-dioxo-2,3,4,7,8,9,10,11,12,13,14,15,16,17-tetradecahydro-1H-cyclopenta[a]phenanthren-16-yl (E)-3-(3,5-dimethoxyphenyl)acrylate] | 5.25 ± 1.63 | 3.85 ± 0.63 |
| CC(=O)OC(C)(C)/C=C/C(=O)[C@](C)(O)C1[C@H](OC(=O)/C=C/c2ccccc2)C[C@@]2(C)C3CC=C4C(C[C@H](OC(=O)/C=C/c5ccccc5)C(=O)C4(C)C)[C@]3(C)C(=O)C[C@]12C (stereo partly drawn) [Compound 4, (2S,9R,13R,14S,16R)-17-((R,E)-6-Acetoxy-2-hydroxy-6-methyl-3-oxohept-4-en-2-yl)-4,4,9,13,14-pentamethyl-3,11-dioxo-2,3,4,7,8,9,10,11,12,13,14,15,16,17-tetradecahydro-1H-cyclopenta[a]phenanthrene-2,16-diyl (2E,2′E)-bis(3-phenylacrylate)] | > 20 | > 20 |
| CC(=O)OC(C)(C)C=CC(=O)C(C)(O)C1C(OC(=O)CCC(=O)NCCOc2no[n+]([O-])c2S(=O)(=O)c2ccccc2)CC2(C)C3CC=C4C(CC(O)C(=O)C4(C)C)C3(C)C(=O)CC12C [Compound 9a, 3-((l1-oxidanyl)(oxo)(phenyl)-l5-sulfanyl)-4-(2-(4-(((9R,13R,14S,16R)-17-((R,E)-6-acetoxy-2-hydroxy-6-methyl-3-oxohept-4-en-2-yl)-2-Hydroxy-4,4,9,13,14-pentamethyl-3,11-dioxo-2,3,4,7,8,9,10,11,12,13,14,15,16,17-tetradecahydro-1H-cyclopenta[a]phenanthren-16-yl)oxy)-4-oxobutanamido)ethoxy)-1,2,5-oxadiazole 2-oxide] | 0.69 ± 0.43 | 0.46 ± 0.14 |
| CC(=O)OC(C)(C)/C=C/C(=O)[C@](C)(O)C1[C@H](OC(=O)CCC(=O)NCCCOc2no[n+]([O-])c2S(=O)(=O)c2ccccc2)C[C@@]2(C)C3CC=C4C(CC(O)C(=O)C4(C)C)[C@]3(C)C(=O)C[C@]12C (stereo partly drawn) [Compound 9b, 4-(3-(4-(((9R,13R,14S,16R)-17-((R,E)-6-Acetoxy-2-hydroxy-6-methyl-3-oxohept-4-en-2-yl)-2-hydroxy-4,4,9,13,14-pentamethyl-3,11-dioxo-2,3,4,7,8,9,10,11,12,13,14,15,16,17-tetradecahydro-1H-cyclopenta[a]phenanthren-16-yl)oxy)-4-oxobutanamido)propoxy)-3-(phenylsulfonyl)-1,2,5-oxadiazole 2-oxide] | 0.8 ± 0.4 | 0.53 ± 0.01 |
